In patent US12215090B2, “Agents and methods for treating dysproliferative diseases” (Memorial Sloan-kettering Cancer Center, priority 2018, dated 2025):
Read-outs that look alike come from different tables or passages of the source.

Key:
Assay type in all cases: cell-based
[1] = system: MOLT-4 (human acute lymphoblastic leukemia [ALL]); experiment: cell viability assay, MOLT-4 cancer cells; settings: MOLT-4 T-ALL cells, 72 hours of exposure, cell titer glow reagent
Procedure: (§1) The biological activity of compounds of the invention was evaluated in several assays. In a cell viability assay using cancer and normal cells lines MOLT-4 (human acute lymphoblastic leukemia [ALL]) and MRC-5 (human lung fibroblast), respectively, cell viability was assessed after 72 hours of exposure to a range of concentrations, using cell titer glow reagent from Promega to assess viability.

[2] = system: MRC-5 (human lung fibroblast); experiment: cell viability assay, MRC-5 normal cells; settings: MRC5, MRC-5 non-cancer cells, 72 hours of exposure, cell titer glow reagent
Procedure: as §1

[3] = system: KOPTK1 cells, a murine T-cell ALL cell line; experiment: cell viability assay, KOPTK1 cells; settings: Mus musculus
DHL6 cells = experiment: cell viability assay, DHL6 cells
Excerpt: (§2) FIGS. 1A, 1B, 1C, and 1D show the activity of compounds of the invention, compared to (−)-CR31B and (+)-CR31B in cell viability assays using (A) DHL6 cells, (B) Jurkat cells, (C) DoHH2 cells, and (D) LY8 cells. […] The following table reports the IC50s (in nM) for each lymphoma and leukemia cell type.

Jurkat cells = experiment: cell viability assay, Jurkat cells
Excerpt: as §2

DoHH2 cells = experiment: cell viability assay, DoHH2 cells
Excerpt: as §2

LY8 cells = experiment: cell viability assay, LY8 cells
Excerpt: as §2

DHL8 cells = experiment: cell viability assay, DHL8 cells
Excerpt: as §2

| Compound | IC50 [1] | IC50 [2] | IC50 [3] | IC50 (DHL6 cells) | IC50 (Jurkat cells; Homo sapiens) | IC50 (DoHH2 cells; Homo sapiens, DOHH-2) | IC50 (LY8 cells) | IC50 (DHL8 cells) | IC50 (Jurkat cells) | IC50 (DoHH2 cells) |
| --- | --- | --- | --- | --- | --- | --- | --- | --- | --- | --- |
| CONC(=O)[C@H]1[C@@H](O)[C@@]2(O)c3c(OC)cc(OC)cc3O[C@@]2(c2ccc(O)cc2)[C@@H]1c1ccccc1 [Compound 1, (1R,2R,3S,3aR,8bS)-1,8b-dihydroxy-3a-(4-hydroxyphenyl)-N,6,8-trimethoxy-3-phenyl-2,3-dihydro-1Hcyclopenta[b]benzofuran-2-carboxamide] | 0.0053 µM | > 1 µM | 0.05 µM | 0.0515 µM | 0.063 µM | 0.0367 µM | 0.0389 µM | 0.0749 µM | – | – |
| (−)-CR31B [reference compound] | – | – | – | 0.00762 µM | – | – | 0.00593 µM | 0.00721 µM | 0.00642 µM | 0.0073 µM |
| (+)-CR31B [reference compound] | – | – | – | ~4.29 µM | – | – | 16.5 µM | 7.48 µM | ~3.11 µM | 2.53 µM |
| COc1cc(OC)c2c(c1)OC1(c3ccc(O)cc3)C(c3ccccc3)C(C(N)=O)C(O)C21O (racemic) [Racemic mixture of Compounds 8 and 9, 1,8b-dihydroxy-3a-(4-hydroxyphenyl)-6,8-dimethoxy-3-phenyl-2,3-dihydro-1H-cyclopenta[b]benzofuran-2-carboxamide] | – | – | 0.01 µM | 0.947 µM | 1.73 µM | 0.987 µM | 2.91 µM | 1.04 µM | – | – |
